SMILES strings stand for the structures.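 1) Cells in 96-well plates. 2) Compound, 48 h, 5 concentrations. 3) Linear interpolation between surrounding doses. 4) Unreached endpoint = highest concentration. GI50 marks 50% less growth.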 Calls of active or inactive are those of the source. Cut-off read from the data, not from the text of the source: active = GI50 up to about 1.1 µM and inactive = higher. Some results are limits rather than exact numbers.

Assay in all cases: growth of human tumour cells (NCI), 48 h
The test system of assay [1] is MOLT-4.
Assay [2] concerns SW-620.
For assay [3], the system named is EKVX.
Assay [4] has as its system HCT-15.
Assay [5] has as its system CCRF-CEM.
Assay [6] concerns SF-539.
For assay [7], the system named is Malme-3M.
Assay [8] has as its system SK-MEL-28.
For assay [9], the system named is SK-MEL-5.
The subject of assay [10] is HCT-116.
In assay [11] the test system is SN12C.
Assay [12] has as its system TK-10.
The subject of assay [13] is SF-268.
The test system of assay [14] is HOP-62.
Assay [15] has as its system NCI-H460.
Assay [16] deals with U-251.
The test system of assay [17] is RXF 393.

As to `CC/C(=N/O)c1ccc2[nH]c3c(C)cc([N+](=O)[O-])c(C)c3c2c1`, the GI50 in assay [1] was 29.6 µM (inactive); in [2], 84.7 µM (inactive); in assay [3], > 100 µM (inactive); in assay [4], 51.1 µM; in assay [5], 15.1 µM (inactive); in [6], 51.5 µM (inactive). The GI50 in assay [7] is 51.3 µM (inactive); in [8], > 100 µM (inactive); in [9] it was 57.3 µM (inactive); in assay [10], 41.8 µM (inactive); in assay [11] it was 76.2 µM (inactive); in assay [12], 15.2 µM (inactive). The GI50 in assay [13] was 61.4 µM (inactive); in assay [14] it was 44 µM (inactive); in assay [15], 39.2 µM (inactive).
Turning to `CS(=O)(=O)NNS(=O)(=O)c1ccccc1`, the GI50 is > 100 µM (inactive) in assay [1]; > 100 µM (inactive) in assay [2]; > 100 µM (inactive) in assay [3]; > 100 µM (inactive) in assay [16]; over 100 µM in assay [4]; > 100 µM (inactive) in [5]. The GI50 in [6], in [7], in assay [9], in assay [10], in assay [11] and in assay [12] was > 100 µM (inactive) in each case. Moreover, the GI50 in [13], in assay [14], in [17] and in assay [15] was > 100 µM (inactive) each time.
For the molecule `CCN(CC)C(=O)c1cccc2c(OC)ccc(OC)c12`, the GI50 was > 100 µM (inactive) in assay [1]; > 100 µM (inactive) in assay [2]; > 100 µM (inactive) in assay [3]; > 100 µM (inactive) in [16]; over 100 µM in assay [4]; > 100 µM (inactive) in assay [5]. The GI50 in [7], in assay [8], in [9], in assay [10], in assay [11] and in assay [12] was > 100 µM (inactive) in each case. In addition, the GI50 in [13], in assay [14], in assay [17] and in assay [15] was > 100 µM (inactive) throughout.
Take `Nc1ccc2nc(NCc3ccc(F)cc3)cnc2c1`: the GI50 in assay [1] was 50.1 µM (inactive); in assay [2], > 100 µM (inactive); in assay [3], > 100 µM (inactive); in assay [16], > 100 µM (inactive); in [4], over 100 µM; in assay [5], > 100 µM (inactive). The GI50 in assay [6] was 79.3 µM (inactive); in assay [7] it was > 100 µM (inactive); in [8] it was > 100 µM (inactive); in assay [9], > 100 µM (inactive); in assay [10], > 100 µM (inactive); in assay [11] it was > 100 µM (inactive). Also, the GI50 in assay [12] is > 100 µM (inactive); in assay [13], > 100 µM (inactive); in assay [14], > 100 µM (inactive); in [17], 59.6 µM (inactive); in assay [15], > 100 µM (inactive).
`CCOC(=O)COc1cccc2c1C(=O)CCO2`: the GI50 in assay [1] is > 100 µM (inactive); in [2], > 100 µM (inactive); in [3] it was > 100 µM (inactive); in [16], > 100 µM (inactive); in assay [4], over 100 µM; in assay [5] it was > 100 µM (inactive). Further, the GI50 in assay [6], in [7], in assay [8], in assay [9], in [10] and in assay [11] was > 100 µM (inactive) in each case. The GI50 in assay [12], in assay [13], in [14] and in assay [15] was > 100 µM (inactive) throughout.

Source of the values: ChEMBL document CHEMBL1201862, “PubChem BioAssay data set” (2004).
